# How the values were obtained:
# [1] = in DMSO; cited from earlier work
# [2] = Absorbance/fluorescence maxima, quantum yields and extinction coefficients of CyN compounds; format: physicochemical
# Protocol: The absorbance and fluorescence maximum wavelengths and extinction coefficients of CyN-111, 165, 272 and 295 were measured using 10-μM solutions of CyN-111, CyN-165, CyN-272 or CyN-295 in 10 mM HEPES buffer (pH 7.4) containing 1% DMSO. Quantum yields were measured in DMSO, using Cardiogreen as a standard (φ: 0.13, in DMSO).
# [3] = Time-course fluorescence measurements (photobleaching rate constants) of CyN and CyNA derivatives in HEPES buffer; format: physicochemical; details: for k, rate of photobleaching: 10 μM in 10 mM HEPES pH 7.4, 1% DMSO, pseudo-first order; for kCyN/kCyNA: ratio of photobleaching rate constants, aqueous media
# Protocol: Values were fitted to a non-linear regression one-phase exponential decay (GraphPad Prism 5.0). Detailed statistics for the one-phase decay analysis of the CyN compounds and 1 follow: Photodecomposition rate constants were determined by plotting -ln(F/F0) vs time, and calculated using a pseudo-first order rate equation. See […]., et al., Photochem. Photobiol. 2000, 72, 392-398.
# [4] = Rates of photobleaching of CyNA-414 and CyN-414; format: physicochemical; details: for k, rate of photobleaching: 10 μM in 10 mM HEPES pH 7.4, 1% DMSO, xenon flash lamp, 12 hours
# Protocol: 10-μM solutions of CyNA-414 and CyN-414 in 10 mM HEPES buffer (pH 7.4) containing 1% DMSO were placed in a 96-well black plate, and fluorescence intensity measurements (n=3) were recorded every 10 minutes for a total period of 12 hours (excitation-emission: 640-750 nm for CyN-414, and 790-820 nm for CyNA-414) under a xenon flash lamp. Values were fitted to a non-linear regression one-phase exponential decay (GraphPad Prism 5.0).
# [5] = Primary screening of photostability of the CyNA library (time-course fluorescence, 8 h); format: physicochemical; parameters: F/Fo, fluorescent intensity at 8 hours vs 0 hours: unit: %; details: 10 μM in HEPES 100 mM pH 7.4, 2% DMSO
# Outline: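 CyNA dyes at 10 μM in 100 mM HEPES pH 7.4 with 2% DMSO irradiated by xenon lamp for 8 h. Fluorescence (ex/em 790-820 nm) read every 10 min; stability given as F8h/Fo.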
# [6] = Absorbance and fluorescence maximum wavelengths and quantum yields of the CyNA library; format: physicochemical; details: for λabs, absorbance maximum wavelength / λem, fluorescence maximum wavelength: CyNA library; for φ, quantum yield: in DMSO, Cardiogreen as standard
# Outline: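 Absorption and emission maxima and quantum yields of the 80-member amine-derivatized CyNA library were measured on a plate spectrophotometer.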
# [7] = format: physicochemical
# Protocol: As a primary evaluation of photo stability, the decrease in fluorescence intensity of the 80 CyNA compounds was measured (see Table 2). The average decrease in fluorescence intensity after 8 hours of irradiation by a xenon lamp was approximately 18%. A subset of the most photostable compounds (i.e., F/Fo reported in Table 2 was greater than or equal to 95) was examined under stronger irradiation in various buffers.
# 10-μM CyNA solutions in 10 mM HEPES buffer (pH 7.4) or PBS (pH 7.3) containing 1% DMSO were placed in a 96-well black plate, and irradiated for periods of 15 minutes up to 2 hours with a high-intensity UV lamp (100 W, 365 nm) at a 2-cm distance. Values are represented as means (n=2), and fitted to a non-linear regression one-phase exponential decay (GraphPad Prism 5.0). Results not shown.
# [8] = Primary screen of SERS intensities of CyNAMLA-functionalized AuNPs (compact Raman scanner); format: physicochemical; details: SERS spectra of CyNAMLA-functionalized AuNPs; excitation at 785 nm, laser power 60 mW
# Protocol: FIG. 15 is a graph of the comparative surface-enhanced Raman spectroscopy (SERS) intensities of members of the CyNAMLA library measured with an excitation wavelength of 785 nm and a laser power of 60 mW in a compact Raman scanner.
# The CyNAMLA compounds were adsorbed onto AuNPs having a diameter of approximately 60 nm, and the SERS properties of the resulting CyNAMLA-functionalized AuNPs were evaluated using a compact Raman scanner. Among metal nanoparticles, AuNPs are particularly suitable for in vivo applications due to their low toxicity, adaptability to bioconjugation, and reproducible signal intensity and quantification.
# [9] = Characterization of the CyNAMLA library (absorbance maximum wavelengths); format: physicochemical; details: absorbance maximum wavelength of CyNAMLA library compounds
# Protocol: The amine group of 21 was protected using di-tert-butyl dicarbonate then derivatized with 80 different primary amines (for structures, see FIGS. 14A-14D). After acetylation of the newly-introduced amine, the compounds were treated with a solution of TFA-DCM (1:9) to remove the tert-butylcarbamate protecting group. The deprotected amine was then coupled to lipoic acid to yield CyNAMLA derivatives with an average purity of 90% (for HPLC-determined purities, see Table 6).
# [10] = Photobleaching of CyNE790 and ICG-sulfo-OSu in PBS; format: physicochemical; details: for maximum relative fluorescence units (rfu): photobleaching experiments
# Excerpt: CyNE790 was also compared to ICG-sulfo-OSu, a commercially available succinimidyl ester of ICG (for chemical structures of CyNE790 and ICG-sulfo-OSu, see FIG. 8).
# [11] = Formation of aggregates: absorbance spectrum in DMSO vs PBS; format: physicochemical; details: for formation of aggregates in aqueous solution: spectral profile DMSO vs PBS
# [12] = Photophysical properties of CyNE790 and ICG-sulfo-OSu; format: physicochemical; details: for Quantum Yield (DMSO): ICG as standard; for Quantum Yield (aqueous media) / ε (aqueous media): PBS pH 7.3, 0.1% DMSO
# Protocol: FIG. 7A is an absorbance spectrum of 10-μM solutions of CyNA-414, CyNE790, ICG and ICG-sulfo-OSu in DMSO and PBS.
# FIG. […]
# After corroborating the spectral properties of CyNE790 as a fluorescent NIR dye, its applicability for protein conjugation was assessed by comparing CyNE790 to ICG-sulfo-OSu, the commercially available succinidimyl ester of ICG. […] However, the application of ICG to molecular imaging has been limited because its fluorescence is drastically quenched after protein conjugation.
# [13] = Fluorescence and photostability of dye-labeled EGFR-IgG2a antibodies; format: physicochemical; details: conjugated to EGFR-IgG2a, vs ICG label
# Protocol: To compare CyNE790 and ICG-sulfo-OSu for in vivo imaging studies, each reactive ester was conjugated to a monoclonal anti-epidermal growth factor receptor (EGFR) antibody.
# 100 μg of anti-EGFR-IgG2a were washed with PBS using a Microcon 3K filter (Millipore), and re-suspended in 100 μL of Na2CO3—NaHCO3 buffer (pH 9.2). 20 equiv of CyNE790 or ICG-sulfo-OSu (typically 1.0-1.2 μL of a 10 mM solution in DMSO) were added and the whole mixture was shaken in the dark for 2 hours. The excess dye was removed by washing with PBS (3×500 μL) using a Microcon 3K filter (Millipore) (3 rounds at 14,000 rpm at 4° C. for 60 min).
# […] in PBS (pH 7.3) were fixed in a glass coverslide, and irradiated with a diode laser (95 mW, 740 nm, time frame: 500 ms, no delay). Emission was recorded with a NIR-enhanced CCD camera (Andor Technology) adapted to an Eclipse Ti-U microscope (40× magnification, filter cube 750/800), and images were processed using the software NIS-Elements 3.10. The resulting values are represented as means (n=3), and fitted to a non-linear regression one-phase exponential decay (GraphPad Prism 5.0).
# [14] = 10 μM in 10 mM HEPES pH 7.4, 1% DMSO
SMILES,"k, rate of photobleaching [3]","F/Fo, fluorescent intensity at 8 hours vs 0 hours [5]","max RFU, maximum relative fluorescence units [5]","λabs, absorbance maximum wavelength [6]","λem, fluorescence maximum wavelength [6]","φ, quantum yield [6]",kCyN/kCyNA [3],other results
CC1(C)C(/C=C/C=C/C=C/C=C2\N(CCCCS(=O)(=O)[O-])c3ccc4ccccc4c3C2(C)C)=[N+](CCCCS(=O)(=O)[O-])c2ccc3ccccc3c21.[Na+] [Cardiogreen],–,–,–,–,–,–,–,φ of quantum yield standard [1]: 0.13
CCCN1/C(=C/C=C2\CCCC(/C=C/C3=[N+](CCC)c4ccccc4C3(C)C)=C2NCCCOC)C(C)(C)c2ccccc21.[I-] [CyN-165],3.49e-05 s⁻¹,–,–,–,–,–,–,"ε, extinction coefficient [2, 14]: 0.352 · 10^5 cm^−1M^−1; λabs [2, 14]: 640 nm; λem [2, 14]: 762 nm; φ, quantum yield ([2]; in DMSO, Cardiogreen as standard): 0.37"
CCCN1/C(=C/C=C2\CCCC(/C=C/C3=[N+](CCC)c4ccccc4C3(C)C)=C2NCCCN2CCCCC2C)C(C)(C)c2ccccc21.[I-] (centres unmarked) [CyN-414],–,–,–,–,–,–,–,"k, rate of photobleaching [4]: 1.75e-05 s⁻¹"
CCCN1/C(=C/C=C2\CCCC(/C=C/C3=[N+](CCC)c4ccccc4C3(C)C)=C2N(CCc2ccccn2)C(C)=O)C(C)(C)c2ccccc21.[I-] [CyNA-111],3.41e-06 s⁻¹,96,565.6,804 nm,818 nm,0.11,12,–
CCCN1/C(=C/C=C2\CCCC(/C=C/C3=[N+](CCC)c4ccccc4C3(C)C)=C2N(CCCOC)C(C)=O)C(C)(C)c2ccccc21.[I-] [CyNA-165],4.53e-06 s⁻¹,94,775.1,806 nm,821 nm,0.09,8,–
CCCN1/C(=C/C=C2\CCCC(/C=C/C3=[N+](CCC)c4ccccc4C3(C)C)=C2N(CC)C(C)=O)C(C)(C)c2ccccc21.[I-] [CyNA-295],3.81e-06 s⁻¹,100,698.6,806 nm,820 nm,0.11,8,–
CCCN1/C(=C/C=C2\CCCC(/C=C/C3=[N+](CCC)c4ccccc4C3(C)C)=C2N(CCCN2CCCCC2C)C(C)=O)C(C)(C)c2ccccc21.[I-] (centres unmarked) [CyNA-414],–,100,925.5,804 nm,819 nm,0.13,–,"photostability under stronger irradiation in various buffers [7]: best photostability; k, rate of photobleaching [4]: 2.5e-06 s⁻¹; kCyN/kCyNA ([4]; CyN-414 vs CyNA-414): 7"
CCCN1/C(=C/C=C2\CCCC(/C=C/C3=[N+](CCCNC(=O)CCCCC4CCSS4)c4ccccc4C3(C)C)=C2N(CCc2ccc(Cl)cc2Cl)C(C)=O)C(C)(C)c2ccccc21.O=C([O-])C(F)(F)F (centres unmarked) [CyNAMLA-686],–,–,–,–,–,–,–,Raman intensity [8]: 8146; λabs (max) [9]: 806 nm
CCCN1/C(=C/C=C2\CCCC(/C=C/C3=[N+](CCC)c4ccccc4C3(C)C)=C2N(CCCN2CCCCC2C)C(=O)CCCC(=O)ON2C(=O)CCC2=O)C(C)(C)c2ccccc21 (centres unmarked) [CyNE790],–,–,–,–,–,–,–,"photostability relative to ICG-sulfo-OSu ([10]; 10 μM in PBS pH 7.3, 1% DMSO): 15 fold; maximum relative fluorescence units (rfu) [10]: 708 rfu; formation of aggregates in aqueous solution [11]: little to no formation of aggregates; fluorescent properties compared to ICG and ICG-sulfo-OSu ([12]; 10 μM in PBS, 1% DMSO, excitation 760 nm, FIG. 7B): superior fluorescent properties to both ICG and ICG-sulfo-OSu; Quantum Yield (DMSO) [12]: 13%; Quantum Yield (aqueous media) [12]: 3.3%; ε (aqueous media) [12]: 108,000 M^−1 · cm^−1; fluorescence intensity and photostability after protein conjugation [13]: maintains its superior fluorescence intensity and photostability"
"CC1(C)C(/C=C/C=C/C=C/C=C2\N(CCCCS(=O)(=O)[O-])c3ccc4ccccc4c3C2(C)C)=[N+](CCCCCC(=O)ON2C(=O)CC(S(=O)(=O)[O-])C2=O)c2ccc3ccccc3c21.[Na+] (centres unmarked) [ICG-sulfo-OSu, reference compound]",–,–,–,–,–,–,–,"maximum relative fluorescence units (rfu) [10]: 136 rfu; absorbance maximum in DMSO ([11]; 10 μM, DMSO): 780 nm; absorbance maximum in PBS ([11]; 10 μM, PBS): 695 nm; formation of aggregates in aqueous solution [11]: formation of aggregates; Quantum Yield (DMSO) [12]: 12%; Quantum Yield (aqueous media) [12]: 0.4%; ε (aqueous media) [12]: 42,000 M^−1 · cm^−1"
